Patent US11434212B2, “Bicyclic compound as a caspase inhibitor” (CHIA TAI TIANQING PHARMACEUTICAL GROUP CO., LTD., priority 2017, dated 2022)
“Also recorded” adds a separate entry of the source.

Experiments:
[1] = Mouse pharmacokinetic study in plasma and liver after oral administration; type: in vivo, male C57BL/6J mice; details: for concentration at 0.5 h / concentration at 2 h / concentration at 6 h: male, C57BL/6J, plasma, read-out: Plasma drug concentration; for liver drug-time curve (area) / plasma drug-time curve (area): 0.5-6 h samples
Text: This experiment intended to investigate the pharmacokinetics in plasma and liver of male C57BL/6J mice after oral administration of the compounds.
Mice were randomly divided into three groups (3 male mice per group). The compound was formulated into the specified formulation. Oral formulations may be clear or uniform suspensions. Animals were intragastrically administered with a given dose of the preparation, respectively.
Whole blood samples were collected from animals through jugular vein puncture at 3 time points of 30 minutes, 2 hours, and 6 hours after administration, approximately 25 μL per sample; while the liver was collected at each time point.
The plasma samples were added to centrifuge tubes containing anticoagulant, and centrifuged at 4° C., 3000 g for 15 min, and the supernatant plasma was taken and quickly frozen on dry ice and then stored in a refrigerator at −70±10° C. until LC-MS/MS analysis was performed.
The blood outside the liver was sopped up with absorbent paper, and the weight of the liver was weighed, and then placed in liquid nitrogen to freeze. MeOH/15 mM PBS (1:2) at a volume-weight ratio of 1:5 was added thereto, and then the homogenization was performed at 14000 rpm for 2 minutes. It was then stored in a refrigerator at −70±10° C. until LC-MS/MS analysis was performed.
The plasma drug concentration data for the compounds were processed with the non-compartment model using WinNonlin™ Version 6.3.0 (Pharsight, Mountain View, Calif.) pharmacokinetic software. The maximal concentration (Cmax), maximal concentration time (Tmax) and quantitative end time were directly obtained from the plasma concentration-time chart.
The following pharmacokinetic parameters were calculated by using logarithmic linear trapezoidal method: elimination phase half-life (T1/2); the in vivo mean residence time of the drug from point 0 to the last time point (MRT0-last); the in vivo mean residence time of the drug from point 0 to infinite time (MRT0-ifn); the area under time-plasma concentration curve from point 0 to the last time point (AUC0-last); the area under time-plasma concentration curve from point 0 to infinite time (AUC0-inf).
For individual plasma concentrations less than BQL, the one occurred before Tmax was calculated as 0, and the one occurred after Tmax was directly excluded. All parameters and ratios were reported in the forms of three significant digits.
The pharmacokinetic parameters of this experiment were calculated according to the theoretical blood collection times and the theoretical administration concentrations in the protocol. The deviations between the actual administration concentrations and the theoretical concentrations were within the range of ±20%. The deviations between the actual blood collection times and the theoretical blood collection times were in conformity with the relevant SOP (the points within 1 hour after administration were within the range of ±1 min, and the others were within 5% of the theoretical time).

[2] = system: CCl4-induced chronic liver fibrosis model; test: Pharmacodynamic study in CCl4-induced chronic liver fibrosis model; type: in vivo, male C57BL/6 mice; set-up: Total score of liver injury / Ballooning change score: scale not given here; details: for Ballooning change score / Inflammatory cell infiltration / Percentage of liver fibrosis / Total score of liver injury: p.o., bid, 28 days, mean ± sem; for Effect on CCl4-induced liver tissue damage (in words) / Inhibitory effect on liver fibrosis (in words): different doses, oral twice a day for 28 days, vs model group
Protocol: The therapeutic effects of the test compound IDN-6556 and the compound of Example 1 in the CCl4-induced chronic liver fibrosis model of male C57BL/6 mice were tested.
Male C57BL/6 mice were randomly divided into 7 groups: pseudo model group (group 1), model group (group 2, solvent p.o., q.d), IDN-6556 (group 3, 3 mg/kg, p.o., bid), IDN-6556 (group 4, 10 mg/kg, p.o., bid), Example 1 (group 5, 3 mg/kg, p.o., bid), Example 1 (group 6, 10 mg/kg, p.o., bid)), Example 1 (group 7, 20 mg/kg, p.o., bid). CCl4 was formulated into a CCl4-olive oil mixed solution according to the doses by using olive oil, modeling is performed by orally administration three times a week for 4 weeks; and the pseudo model group was orally administered with the same volume of olive oil alone. Compounds were orally administrated from the day of modeling, twice a day for 28 days, while the pseudo model group and the model group were orally administered with an equal volume of drug solvent. On the next day after the last administration, the animals were fasted for 6 hours, followed by euthanizing, and the livers were collected. Liver tissues were fixed in 10% formalin solution for histopathological analysis.

[3] = molecular target: T1, Caspase-1 (Homo sapiens, UniProt P29466); test: In vitro inhibitory activity on Caspase-1 (BioVision Caspase-1 Inhibitor Screening Kit); type: biochemical; details: fluorogenic substrate 50 μM; test concentrations 1000 nM to 0.32 nM
T1 construct: purchased BioVision K151-100
T1 sequence (P29466 120-297 limits assumed): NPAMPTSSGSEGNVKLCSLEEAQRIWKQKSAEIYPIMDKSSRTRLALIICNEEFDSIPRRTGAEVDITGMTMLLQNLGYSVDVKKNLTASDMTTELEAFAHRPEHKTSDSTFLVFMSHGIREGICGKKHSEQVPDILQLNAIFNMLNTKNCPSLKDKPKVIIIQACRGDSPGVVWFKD
T1 sequence (P29466 317-404 limits assumed): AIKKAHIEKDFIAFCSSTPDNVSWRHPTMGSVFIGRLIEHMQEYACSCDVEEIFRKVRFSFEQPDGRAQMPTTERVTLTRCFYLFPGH
Protocol: (§1) Caspase Inhibitor Screening Kit for BioVision was used in this experiment to test the inhibitory activity of the test compounds on Caspase.
Caspase-1 Inhibitor Screening Kit (BioVision #K151-100)
(§2) Note: Each caspase enzymatic experiment uses the reagents in corresponding kit thereof. Each enzyme was dissolved in 550 μl of the corresponding 2× reaction buffer, sub-packed and stored at −80° C., respectively.
(§3) 1) The compound was diluted to a 200*test concentration with DMSO via the multiple dilution, then to a 2*test concentration with ddH2O, and added to a 384-well experimental plate at 12.5 μl per well. Test compounds and control compounds were tested at 6 concentration points, test concentrations ranging from 1000 nM to 0.32 nM. The ddH2O containing 1% DMSO was added to the 0% inhibition control well, and a high concentration of the control compound was added to the 100% inhibition control well (final concentration: 5 μM).
(§4) 2) 2× reaction buffer containing 10 mM DTT was prepared. The enzyme caspase stock solution was diluted 5-fold with 2× reaction buffer containing 10 mM DTT and added to a 384-well experimental plate at 6.25 μl per well. After being mixed, the enzyme and compounds were incubated at 37° C. for 30 minutes.
(§5) 3) The fluorogenic substrate of the enzyme caspase was diluted 5-fold with 2× reaction buffer containing 10 mM DTT, and then added to a 384-well experimental plate at 6.25 μl per well. The total reaction volume was 25 μl, the final concentration of the substrate was 50 μM, and the final concentration of DMSO was 0.5%. After the substrate was added, the 384-well experimental plate was incubated at 37° C. for 30 minutes.
(§6) 4) The fluorescence intensity (excitation light wavelength was 400 nm, emission light wavelength was 505 nm) was measured by using a multi-function microplate reader. Fluorescence intensity was used to calculate the inhibitory effect of the compounds on Caspase. GraphPad Prism software was used for fitting compound inhibition curves and calculating IC50 values.

[4] = molecular target: T2, Caspase-3 (Homo sapiens, UniProt P42574); test: In vitro inhibitory activity on Caspase-3 (BioVision Caspase-3 Inhibitor Screening Kit); type: biochemical; details: fluorogenic substrate 50 μM; test concentrations 1000 nM to 0.32 nM
T2 construct: purchased BioVision K153-100
T2 sequence (P42574 29-175 limits assumed): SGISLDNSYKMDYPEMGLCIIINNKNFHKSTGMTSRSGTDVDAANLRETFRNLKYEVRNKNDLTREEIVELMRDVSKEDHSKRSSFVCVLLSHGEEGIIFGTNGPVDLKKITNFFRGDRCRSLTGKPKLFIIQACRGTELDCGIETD
T2 sequence (P42574 176-277 limits assumed): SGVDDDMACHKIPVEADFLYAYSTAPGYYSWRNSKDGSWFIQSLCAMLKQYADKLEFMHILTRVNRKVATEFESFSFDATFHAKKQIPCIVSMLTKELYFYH
Protocol: as §1
Caspase-3 Inhibitor Screening Kit (BioVision #K153-100)
as §2, §3, §4, §5, §6

[5] = molecular target: T3, Caspase-8 (Homo sapiens, UniProt Q14790); test: In vitro inhibitory activity on Caspase-8 (BioVision Caspase-8 Inhibitor Screening Kit); type: biochemical; details: fluorogenic substrate 50 μM; test concentrations 1000 nM to 0.32 nM
T3 construct: purchased BioVision K158-100
T3 sequence (Q14790 217-374 limits assumed): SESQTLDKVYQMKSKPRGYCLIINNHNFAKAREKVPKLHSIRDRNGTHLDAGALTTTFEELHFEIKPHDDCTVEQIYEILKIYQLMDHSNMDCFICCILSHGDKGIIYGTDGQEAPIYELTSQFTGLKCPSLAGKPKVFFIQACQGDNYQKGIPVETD
T3 sequence (Q14790 385-479 limits assumed): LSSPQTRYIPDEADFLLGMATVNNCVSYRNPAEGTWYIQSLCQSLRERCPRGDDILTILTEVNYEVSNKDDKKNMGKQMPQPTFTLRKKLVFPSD
Protocol: as §1
Caspase-8 Inhibitor Screening Kit (BioVision #K158-100)
as §2, §3, §4, §5, §6

[6] = 0.5 h after oral (intragastric) administration
[7] = 2 h after oral (intragastric) administration
[8] = 6 h after oral (intragastric) administration

Compound C[C@H](NC(=O)C(=O)Nc1ccccc1C(C)(C)C)C(=O)N[C@@H](CC(=O)O)C(=O)COc1c(F)c(F)cc(F)c1F [IDN-6556, reference compound] has a Liver drug concentration [1, 6] of 8600 nmol/kg, a Liver drug concentration [1, 7] of 930 nmol/kg and a Liver drug concentration [1, 8] of 230 nmol/kg. It also gave a concentration at 0.5 h [1, 6] of 435 nM, a concentration at 2 h [1, 7] of 10.9 nM and a concentration at 6 h [1, 8] of 5.79 nM. The “liver drug-time curve (area)” value ([1]; oral administration) was 9.347 µM·h, the “plasma drug-time curve (area)” value ([1]; oral administration) was 0.314 µM·h and the Ballooning change score ([2]; 3 mg/kg) was 0.05 ± 0.04. For the same compound, the Inflammatory cell infiltration ([2]; 3 mg/kg) was 1.55 ± 0.06, the “Percentage of liver fibrosis” value ([2]; 3 mg/kg) was 1.84 ± 0.07% and the “Total score of liver injury” value ([2]; 3 mg/kg) was 1.60 ± 0.07. The Ballooning change score ([2]; 10 mg/kg) was 0.08 ± 0.04, the “Percentage of liver fibrosis” value ([2]; 10 mg/kg) was 1.86 ± 0.12% and the “Total score of liver injury” value ([2]; 10 mg/kg) was 1.43 ± 0.12. For the same compound, the “Effect on CCl4-induced liver tissue damage (in words)” value [2] was “significantly inhibit”, the “Inhibitory effect on liver fibrosis (in words)” value [2] was “no clear inhibitory effect” and the “Effect on CCl4-induced liver tissue damage (in words)” value ([2]; listed as IND-6556) was “significantly improve”.

With C[C@H](NC(=O)c1cc(-c2ccccc2Cl)no1)C(=O)N[C@@H](CC(=O)O)C(=O)COc1c(F)c(F)cc(F)c1F [Example 17] the IC50 [3] was 4.2 nM, the IC50 [4] was 9.5 nM and the IC50 [5] was 31.4 nM.

C[C@H](NC(=O)c1cc(-c2cccc(Cl)c2)on1)C(=O)N[C@@H](CC(=O)O)C(=O)COc1c(F)c(F)cc(F)c1F [Example 10] showed an IC50 [3] of 6.6 nM, an IC50 [4] of 22 nM and an IC50 [5] of 16.3 nM.

C[C@H](NC(=O)c1cc(-c2ccccc2Cl)on1)C(=O)N[C@H](CC(=O)O)C(=O)COc1c(F)c(F)cc(F)c1F [Example 18] showed an IC50 [3] of 7.5 nM, an IC50 [4] of 26.1 nM and an IC50 [5] of 62.1 nM.

Work on C[C@H](NC(=O)c1cc(-c2ccc(Cl)cc2)on1)C(=O)N[C@@H](CC(=O)O)C(=O)COc1c(F)c(F)cc(F)c1F [Example 6] yielded an IC50 [3] of 6 nM, an IC50 [4] of 24.5 nM and an IC50 [5] of 19.9 nM.

In the case of C[C@H](NC(=O)c1cc(-c2ccccc2F)on1)C(=O)N[C@@H](CC(=O)O)C(=O)COc1c(F)c(F)cc(F)c1F [Example 12], the IC50 [3] is reported as 6.7 nM, the IC50 [4] is reported as 21 nM and the IC50 [5] is reported as 17.9 nM.

For C[C@H](NC(=O)c1cc(-c2ccccc2Cl)on1)C(=O)N[C@@H](CC(=O)O)C(=O)COc1c(F)c(F)cc(F)c1F [Example 1, (S)-3-((S)-2-(5-(2-chlorophenyl)isoxazol-3-carboxamido)propionamido)-4-oxo-5-(2,3,5,6-tetrafluorophenoxy)pentanoic Acid], the Liver drug concentration [1, 6] was 46440 nmol/kg, the Liver drug concentration [1, 7] was 3126 nmol/kg and the Liver drug concentration [1, 8] was 3252 nmol/kg. For the same compound, the concentration at 0.5 h [1, 6] was 2520 nM, the concentration at 2 h [1, 7] was 112 nM and the concentration at 6 h [1, 8] was 12.8 nM. For the same compound, the “Liver exposure compared to IDN-6556” value ([1]; oral administration) was “about 5 times”, the “liver drug-time curve (area)” value ([1]; oral administration) was 48.442 µM·h and the “plasma drug-time curve (area)” value ([1]; oral administration) was 1.795 µM·h. The Ballooning change score ([2]; 3 mg/kg) was 0.00 ± 0.00, the Inflammatory cell infiltration ([2]; 3 mg/kg) was 1.13 ± 0.06 and the “Percentage of liver fibrosis” value ([2]; 3 mg/kg) was 1.61 ± 0.05^$$ %. The “Total score of liver injury” value ([2]; 3 mg/kg) was 1.13 ± 0.06, the Ballooning change score ([2]; 10 mg/kg) was 0.00 ± 0.00 and the Inflammatory cell infiltration ([2]; 10 mg/kg) was 1.15 ± 0.07. The “Percentage of liver fibrosis” value ([2]; 10 mg/kg) was 1.62 ± 0.07^$ %, the “Total score of liver injury” value ([2]; 10 mg/kg) was 1.20 ± 0.07 and the Ballooning change score ([2]; 20 mg/kg) was 0.00 ± 0.00. For the same compound, the Inflammatory cell infiltration ([2]; 20 mg/kg) was 1.10 ± 0.04, the “Percentage of liver fibrosis” value ([2]; 20 mg/kg) was 1.69 ± 0.10% and the “Total score of liver injury” value ([2]; 20 mg/kg) was 1.12 ± 0.04. The “Effect on CCl4-induced liver tissue damage (in words)” value [2] was “significantly improve; also recorded: significantly inhibit” and the “Inhibitory effect on liver fibrosis (in words)” value [2] was “significantly inhibited; also recorded: significant inhibitory effect”.
